According to paper PMC12386367, “Importin α3 Is Tolerant to Nuclear Localization Signal Chirality” (International Journal of Molecular Sciences, 2025):
Like-named read-outs stand apart in the source and are kept apart here. Non-standard residues stand in square brackets, D forms with d. Residues, ends and D or L forms follow the SMILES beside them. d(pT) = C[C@H](OP(=O)(O)O)[C@@H](N)C(=O)O

Assays:
∆Impα3 = biological target: T1, ∆Impα3 (Homo sapiens, UniProt O00629); assay: Biolayer interferometry (BLI) binding to ∆Impα3; settings: peptide 1–10 μM, 25 °C; for kon: BLItz, ∆Impα3 immobilized via His-tag (0.25 μM), 10 × kinetics buffer, error from pseudo-first order fit, at least two repeats; for koff: ∆Impα3 immobilized via His-tag, error from pseudo-first order fit (Equation 5)
T1 construct: IBB-depleted species of Impα3 (residues 64–521 of the intact protein); made in house
T1 sequence (O00629 64-521): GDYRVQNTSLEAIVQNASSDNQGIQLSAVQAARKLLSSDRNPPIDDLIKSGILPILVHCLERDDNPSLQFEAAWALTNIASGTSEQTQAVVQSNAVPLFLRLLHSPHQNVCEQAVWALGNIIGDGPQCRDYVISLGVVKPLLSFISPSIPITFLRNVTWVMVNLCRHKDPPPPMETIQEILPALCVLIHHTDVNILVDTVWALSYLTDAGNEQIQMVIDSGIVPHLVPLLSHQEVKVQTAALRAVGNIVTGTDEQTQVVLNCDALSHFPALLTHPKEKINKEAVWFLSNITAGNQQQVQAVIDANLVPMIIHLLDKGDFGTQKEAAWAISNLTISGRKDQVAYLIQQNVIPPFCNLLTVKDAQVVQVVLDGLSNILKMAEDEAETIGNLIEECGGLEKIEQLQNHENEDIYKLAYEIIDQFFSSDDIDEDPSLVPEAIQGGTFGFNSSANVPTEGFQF
Protocol: (§1) The association (kon) and dissociation (koff) rate constants of the binding of D-NLS peptides to either Impα3 or ∆Impα3 were determined by using a BLItz system (ForteBio, Pall, Barcelona, Spain). The buffer used in the experiments was that recommended by the manufacturer. […] The peptide concentrations were in a range from 1 to 10 μM during the association step. The general scheme of the protein association/dissociation reactions in the BLItz system for the D-NLS peptides was as follows: 30 s of initial baseline acquisition with the 10 × kinetics buffer (provided by the manufacturer); 120 s of loading either Impα3 and ∆Impα3 into the biosensor; 30 s of baseline acquisition with the 10 × kinetics buffer; 120 s of association of each peptide to the biosensor (which had been previously loaded with the importin species); and 120 s of monitoring of the dissociation of each peptide from the biosensor. All experiments were carried out at 25 °C.
(§2) Fittings of the BLI sensorgrams was carried out by using KaleidaGraph, as previously described. The interferometry response during the association step, R(t) (measured in response units, RU), and the binding rate, dR(t)/dt, could be used to evaluate the kinetics of the formation of the complex between Impα3/∆Impα3 and each D-NLS, according to:(2) dR/dt=konD-NLSRmax−Rt−koffR(t) where Rmax is proportional to the total concentration of biosensor-bound importin species; and [D-NLS] represents the concentration of the corresponding D-NLS peptide.
(§3) In Equation (2), R(t) is given by:(3) Rt= Req−Reqe^(−kobs t−t0) where Req is the steady-state (or equilibrium) response obtained at infinite time, when dR(t)/dt = 0, and t0 = 180 s is the time at which the association step between biosensor-immobilized Impα3/∆Impα3 and D-NLS in the solution started. We fitted the experimentally obtained R(t) under any condition as:(4) Rt= Req−Reqe^−kobs t−t0−R’eq(t−t0) where R^′eq was included to consider the lineal drift observed at longer times.
(§4) The dissociation process was always fitted to a single exponential, with R(t) given by:(6) Rt=R1 e^(−kofft−t0)−R^″eq(t−t0) where t0 = 300 is the time at which the dissociation of the D-NLS from the biosensor-bound Impα3/∆Impα3 started in our experimental set-up, R1 is the response level when dissociation starts, and the parameter R^″eq considers the linear drift observed at longer times.
(§5) The experiments were repeated at least twice for each peptide with each importin species.

Impα3 = biological target: T2, Impα3 (Homo sapiens, UniProt O00629); assay: Biolayer interferometry (BLI) binding to Impα3; settings: peptide 1–10 μM, 25 °C; for kon: BLItz, Impα3 immobilized via His-tag (0.25 μM), 10 × kinetics buffer, error from pseudo-first order fit, at least two repeats; for koff: Impα3 immobilized via His-tag, error from pseudo-first order fit (Equation 5)
T2 construct: Human importin α3 isoform (residues 1–521); made in house
T2 sequence (O00629 1-521): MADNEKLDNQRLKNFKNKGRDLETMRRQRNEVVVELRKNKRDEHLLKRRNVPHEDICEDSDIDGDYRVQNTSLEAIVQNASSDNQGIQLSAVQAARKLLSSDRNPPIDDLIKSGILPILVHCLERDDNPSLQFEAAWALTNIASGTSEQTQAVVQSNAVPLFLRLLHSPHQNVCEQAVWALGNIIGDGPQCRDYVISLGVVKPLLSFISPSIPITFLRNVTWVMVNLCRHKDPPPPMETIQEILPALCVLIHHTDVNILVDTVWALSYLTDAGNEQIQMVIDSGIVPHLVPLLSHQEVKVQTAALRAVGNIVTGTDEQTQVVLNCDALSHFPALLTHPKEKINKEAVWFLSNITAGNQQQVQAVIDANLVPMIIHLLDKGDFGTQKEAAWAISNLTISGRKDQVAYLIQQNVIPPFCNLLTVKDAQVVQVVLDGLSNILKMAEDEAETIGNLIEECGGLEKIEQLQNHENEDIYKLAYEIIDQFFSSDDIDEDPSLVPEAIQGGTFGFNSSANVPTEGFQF
Protocol: as §1, §2, §3, §4, §5

[1] = Translational diffusion NMR (DOSY) of NLS peptides; assay type: physicochemical; settings: ~100 μM peptide; for Diffusion coefficient D: 50 mM deuterated Tris pH 7.2, 100% D2O, 10 °C
Text: For the four peptides, we measured the experimental value of D for dioxane ranging from (1.2 ± 0.1) × 10^−5 to (1.05 ± 0.02) × 10^−5 cm^2 s^−1 in each solution containing the corresponding peptide; we assumed a hydrodynamic radius of 2.12 Å for dioxane (Table 1) under any condition. […] Furthermore, the values of D were similar for the D- and L-peptides, and the latter were already being described as disordered. Thus, we can conclude that the four D-peptides were monomeric and disordered, like the L-form counterparts, and, then, there was no difference in the hydrodynamic properties of the peptides by changing the enantiomeric nature of the residues.
The NMR spectra were acquired at 10 °C on a Bruker Avance III spectrometer (Bruker GmbH, Mannheim, Germany), equipped with a triple-resonance probe and z-pulse field gradients. All NMR experiments with D-NLS peptides were carried out in 50 mM deuterated Tris buffer (not corrected for isotope effects), pH 7.2. Spectra were calibrated with TSP, by considering pH-dependent changes in its chemical shifts; probe temperature was calibrated with pure methanol.
The typical D-NLS peptide concentrations in DOSY experiments were ~100 μM, and 128 scans were acquired, in which the gradient strength was varied linearly in sixteen steps, between 2 and 95% of the total power of the gradient coil. Measurements of the translational self-diffusion coefficient, D, were performed with the pulsed-gradient spin-echo sequence in the presence of 100% D2O. Details on the experimental conditions and fitting of the resulting curves have been described elsewhere. Gradient strength was calibrated by using the value of D for the residual proton water signal in a sample containing 100% D2O, in a 5 mm tube [23]. Gradient length was 2.5 ms; the time between the two pulse gradients in the sequence was 250 ms; and the recovery delay between the bipolar gradients was 100 μs. The signals from methyl groups between 0.8 and 1.0 ppm were used for peak integration, for all the D-NLS peptides. A final concentration of 1% of dioxane, which was assumed to have a hydrodynamic radius Rh of 2.12 Å [23], was added to the solution of each peptide.

[2] = biological target: T3, IBB-depleted species of Impα3 (residues 64–521 of the intact protein) (human, UniProt O00629 64-521); assay: BLI; His-tagged Impα3 or ∆Impα3 immobilised on His-tag biosensors at 0.25 μM; peptides 1 to 10 μM; BLItz system, manufacturer's 10x kinetics buffer; 25 °C; kon and koff from pseudo-first-order plots; apparent Kd = koff/kon, two-state process assumed; settings: both partners purified
T3 construct: PDB 5XZX was used only as the model of ∆Impα3 for docking; its limits may differ from 64-521; also called ΔImpα3; truncated importin species
T3 sequence (looked up): T1 sequence (O00629 64-521)

[3] = biological target: T4, Human importin α3 isoform (residues 1–521) (human, UniProt O00629 1-521); assay: as above; settings: both partners purified
T4 construct: human importin α3 (Impα3, KPNA4), residues 1-521, intact protein with the N-terminal IBB domain; The materials list Ni2+-resin, ampicillin and IPTG, so expression in E. coli is surmised; also called Impα3; KPNA4
T4 sequence (looked up): T2 sequence (O00629 1-521)

Molecule: CC[C@@H](C)[C@@H](NC(=O)[C@@H](CCCCN)NC(=O)[C@@H](CCC(N)=O)NC(=O)[C@@H](CCC(N)=O)NC(=O)[C@@H](CCCCN)NC(=O)[C@@H](CCCCN)NC(=O)[C@@H](CCCCN)NC(=O)[C@@H](CCCCN)NC(=O)[C@H](NC(=O)CNC(=O)[C@@H](CCC(=O)O)NC(=O)[C@@H](Cc1ccccc1)NC(=O)[C@@H](CC(C)C)NC(=O)[C@@H](CC(C)C)NC(=O)[C@@H](C)NC(=O)[C@@H](CCC(=O)O)NC(=O)CNC(=O)[C@@H](Cc1c[nH]cn1)NC(=O)CNC(=O)[C@@H](CCC(=O)O)NC(=O)[C@@H](CC(N)=O)NC(=O)[C@@H](CCC(N)=O)NC(=O)[C@@H](CCC(N)=O)NC(=O)[C@@H](CCC(=O)O)NC(=O)[C@@H](CCC(N)=O)NC(=O)[C@@H](Cc1ccccc1)NC(=O)[C@@H](CC(C)C)NC(=O)[C@@H](CCCCN)NC(C)=O)[C@H](C)CC)C(N)=O [D-NLS-PADI] (Ac-[dK][dL][dF][dQ][dE][dQ][dQ][dN][dE]G[dH]G[dE][dA][dL][dL][dF][dE]G[dI][dK][dK][dK][dK][dQ][dQ][dK][dI]-NH2)
- kon (∆Impα3; read-out: kon): 60000 ± 10000 M⁻¹ s⁻¹
- koff (∆Impα3): 0.37 ± 0.05 s⁻¹
- kon (Impα3; read-out: kon): 45000 ± 20000 M⁻¹ s⁻¹
- koff (Impα3): 0.6 ± 0.1 s⁻¹
- Diffusion coefficient D [1]: 1.0 ± 0.1 cm^2 s^−1 × 10^6

Molecule: CC(=O)N[C@H](Cc1ccc(O)cc1)C(=O)N[C@@H](C(=O)N[C@H](CC(N)=O)C(=O)N[C@H](CCCNC(=N)N)C(=O)N1CCC[C@@H]1C(=O)N[C@H](CO)C(=O)N1CCC[C@@H]1C(=O)NCC(=O)NCC(=O)N[C@H](Cc1c[nH]cn1)C(=O)N[C@H](CCC(=O)O)C(=O)N[C@H](CCCNC(=N)N)C(=O)N[C@H](CCCCN)C(=O)N[C@H](CC(C)C)C(=O)N[C@@H](C(=O)N[C@@H](C(=O)N[C@H](CCCCN)C(=O)N[C@H](CC(C)C)C(=O)N[C@H](CCC(N)=O)C(=O)N[C@H](CC(N)=O)C(=O)N[C@H](CO)C(=O)N[C@H](CCC(=O)O)C(N)=O)[C@H](C)OP(=O)(O)O)C(C)C)[C@H](C)O [D-NLS-NUPR1phospho] (Ac-[dY][dT][dN][dR][dP][dS][dP]GG[dH][dE][dR][dK][dL][dV][d(pT)][dK][dL][dQ][dN][dS][dE]-NH2)
- kon (∆Impα3; read-out: kon): 6000 ± 1000 M⁻¹ s⁻¹
- koff (∆Impα3): 0.05 ± 0.01 s⁻¹
- kon (Impα3; read-out: kon): 10000 ± 3000 M⁻¹ s⁻¹
- koff (Impα3): 0.13 ± 0.02 s⁻¹
- Diffusion coefficient D [1]: 2.2 ± 0.2 cm^2 s^−1 × 10^6

Molecule: YT^54NRPSPGGHERKLVTKLQNSE^74 [D-NLS-NUPR1, D-enantiomeric, isolated NLS region of NUPR1 (residues 54–74 of the intact protein)]
- kon (∆Impα3): 110000 ± 20000 M⁻¹ s⁻¹
- kon (Impα3): 50000 ± 10000 M⁻¹ s⁻¹
- Hydrodynamic radius Rh ([1]; D-peptides, by comparison with D of dioxane (1%, Rh 2.12 Å), 50 mM deuterated Tris pH 7.2, 10 °C): 9 ± 1 Å
- Diffusion coefficient D [1]: 1.78 ± 0.08 cm^2 s^−1 × 10^6

B1: D-enantiomeric, isolated NLS region of NUPR1 (residues 54–74 of the intact protein) (peptide)
peptide: Ac-[dY][dT][dN][dR][dP][dS][dP]GG[dH][dE][dR][dK][dL][dV][dT][dK][dL][dQ][dN][dS][dE]-NH2
notes: NLS region of NUPR1 (nuclear protein 1), residues 54-74 of the intact protein, made of D-amino acids; also called D-NLS-NUPR1; wild-type D-NLS-NUPR1; source: synthetic peptide (Genscript, purity higher than 95%)
- kon [2]: 110000 M⁻¹ s⁻¹
- kon [3]: 50000 M⁻¹ s⁻¹

B2: D-enantiomeric, isolated NLS region of NUPR1 with phosphorylated Thr68 (peptide)
peptide: Ac-[dY][dT][dN][dR][dP][dS][dP]GG[dH][dE][dR][dK][dL][dV][d(pT)][dK][dL][dQ][dN][dS][dE]-NH2
SMILES: CC(=O)N[C@H](Cc1ccc(O)cc1)C(=O)N[C@@H](C(=O)N[C@H](CC(N)=O)C(=O)N[C@H](CCCNC(=N)N)C(=O)N1CCC[C@@H]1C(=O)N[C@H](CO)C(=O)N1CCC[C@@H]1C(=O)NCC(=O)NCC(=O)N[C@H](Cc1c[nH]cn1)C(=O)N[C@H](CCC(=O)O)C(=O)N[C@H](CCCNC(=N)N)C(=O)N[C@H](CCCCN)C(=O)N[C@H](CC(C)C)C(=O)N[C@@H](C(=O)N[C@@H](C(=O)N[C@H](CCCCN)C(=O)N[C@H](CC(C)C)C(=O)N[C@H](CCC(N)=O)C(=O)N[C@H](CC(N)=O)C(=O)N[C@H](CO)C(=O)N[C@H](CCC(=O)O)C(N)=O)[C@H](C)OP(=O)(O)O)C(C)C)[C@H](C)O
notes: NLS region of NUPR1 (nuclear protein 1), residues 54-74 of the intact protein, made of D-amino acids, Thr68 phosphorylated; Mirror-image (all-D) peptide; also called D-NLS-NUPR1phospho; source: synthetic peptide (Genscript, purity higher than 95%)
- Kd [2]: 8 µM
- koff [2]: 0.05 s⁻¹
- kon [2]: 6000 M⁻¹ s⁻¹
- Kd [3]: 13 µM
- koff [3]: 0.13 s⁻¹
- kon [3]: 10000 M⁻¹ s⁻¹
